Results reported in patent US8710021B2, “Inhibition of HRP-3 using modified oligonucleotides” (Bionucleon S.r.l., priority 2008, dated 2014).
Entries after “also recorded” stand apart in the source; their conditions may differ.

How the values were obtained:
HRP-3 [1] = target: T1, HRP-3 (Homo sapiens, UniProt Q9Y3E1); experiment: 3T3 migration in vitro assay: prevention of HRP-3 function by DNA duplexes; assay type: cell-based, mouse
T1 construct: The HRP-3 coding region was cloned into the pET30 vector using EcoRI and NdeI as restriction sites; made in house; host or cells: E. coli BL21
T1 sequence (Q9Y3E1 whole entry): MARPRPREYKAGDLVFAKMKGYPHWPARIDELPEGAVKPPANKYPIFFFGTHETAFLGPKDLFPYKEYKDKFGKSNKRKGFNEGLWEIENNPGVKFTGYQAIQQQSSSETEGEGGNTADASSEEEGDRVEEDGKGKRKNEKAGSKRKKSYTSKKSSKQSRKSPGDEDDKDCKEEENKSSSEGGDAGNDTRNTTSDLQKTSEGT
Method: All the four DNA duplexes were tested in our 3T3 migration in vitro assay to see if they were able to prevent HRP-3 function by binding its PWWP domain (FIG. 13). […] The third column on the left is the negative control.

HRP-3 [2] = target: T1, HRP-3; experiment: HRP-3 induced sprouting of HUVEC blocked by single strand oligonucleotides; assay type: cell-based; conditions: recombinant HRP-3 plus synthetic oligo
Source text: We tried to twice block the protein effect of human endothelial cells sprouting with a modified single strand oligonucleotides. In samples with recombinant protein, and synthetic oligos, SEQ ID NO. 16, 17, and 18 the number of sprouted spheroids was reduced as compared to samples with recombinant protein (FIG. 19).

HUVEC cells [3] = experiment: HUVEC sprouting test; assay type: cell-based, human
Method: (§1) While no effects on the proliferation on BAEC and HUVEC cells were found, HRP-3 is able to induce HUVEC sprouting after 24 hours of stimulation. As shown in FIGS. 3 and 4 the HRP-3 can induce sprouting in HUVEC cells in a dose dependent manner. In FIG. 4 we have shown the negative control and the positive control with VEGF at 60 ng/ml. […] To be sure of ours results, experiments have been made in blind too.
Furthermore to confirm VEGF-independent angiogenic activity we performed another sprouting test with Avastin, anti-VEGF antibody in presence of VEGF and our protein.

3T3 cells [4] = experiment: 3T3 proliferation assay; assay type: cell-based, mouse
Method: (§2) In analogy with the reported HDGF activity on NIH 3T3 fibroblast, we decided to test the HRP-3 activity on these cells to develop a test able to report any interfering activity by a ligand able to bind the PWWP domain. Migration and proliferation assay of 3T3 cells in presence of increasing amounts of the protein were performed. These assays allow the definition of a strong anti-migratory effect of the HRP-3 protein, which at 30 ng/mL is able to prevent 50% of the 3T3 migration induced at 24 h by 5% FBS. This test was validated and is currently well reproducible, FIG. 2.

HUVEC [5] = experiment: Tube formation assay in Matrigel; assay type: cell-based, human; conditions: after 24 hours, preliminary result
[6] = test system: SH-SY5 neuroblastoma cells; experiment: Proliferation assay of SH-SY5 cells; assay type: cell-based, human; conditions: 100 ng/mL HRP-3, 24 and 48 h
Method: Angiogenesis plays a key role during neural differentiation, exerting a trophic activity on both neurons and glia. A variety of angiogenic factors have been identified so far to play an important role in the induction of angiogenesis in NBs, including vascular endothelial growth factor (VEGF). Proliferation assay of SH-SY5 and NCS-34 cells in presence of increasing amounts of the protein were performed. These assays allow the definition of a anti-proliferatory effect of the protein only on SHSY, which at 100 ng/mL is able to prevent 25% of the SH-SY5 proliferation induced at 24 and 48 h by 5% FBS.

HUVEC cells [7] = experiment: mRNA expression in HUVEC by Real Time PCR; assay type: cell-based, human
Source text: To understand the molecular basis of this stimulation, we studied mRNA expression of HRP-3 in HUVEC cell line by Real Time PCR. […] To understand if VEGF or VEGFR-2 was involved with the HRP-3 induced mechanism, we stimulated HUVEC cells with our HRP-3 and investigated mRNA levels of VEGF, VEGFR-2, HRP-3 and HDGF. The expression of those genes is not changed by HRP-3, FIGS. 5 and 6.

NIH 3T3 fibroblasts = experiment: 3T3 migration assay in presence of increasing amounts of HRP-3; assay type: cell-based, mouse; conditions: 30 ng/mL HRP-3, 24 h
Method: as §2

BAEC = experiment: Proliferation of endothelial primary cells (BAEC); assay type: cell-based
Method: as §1

HUVEC [8] = experiment: HUVEC migration assay in presence of increasing amounts of HRP-3; assay type: cell-based, human; conditions: 100 ng/ml HRP-3, 5 and 16 h
Method: Migration assay of HUVEC in presence of increasing amounts of the protein was performed (FIG. 9). These assay allows the definition of a anti-migratory effect of the protein on human endothelial cells in a dose-dependent manner, which at 100 ng/ml is able to prevent about 80% of the migration induced at 5 and 16 h by 5% FBS.

HUVEC [9] = experiment: Proliferation of endothelial primary cells (HUVEC); assay type: cell-based, human
Method: as §1

3T3 cells [10] = experiment: 3T3 anchorage independent growth; assay type: cell-based, mouse
GI-LI-N cells = conditions: 48 h
[11] = test system: GI-LI-N neuroblastoma xenograft; experiment: Orthotopic neuroblastoma (GI-LI-N) xenograft survival in nude mice; assay type: in vivo; conditions: VCR 1 mg/kg i.v. once a week for 5 weeks
Method: Mice were housed under specific pathogen-free conditions. The in vivo experiment was performed using five week old female athymic (Nude-nu) mice. Mice were anaesthetized with a mixture of xylazine (10 mg/kg) and ketamine (90 mg/kg) (Imalgene 1000, Merial Italia S.p.A., Milan, Italy), subjected to laparatomy, and orthotopically injected with the neuroblastoma (NB) cell line, GI-LI-N (1.5×10^6 cells in 10 μL of saline solution/mouse), in the capsule of the left adrenal gland, as previously reported (Pastorino F. et al., Cancer Res 63, 2003; Pastorino F. et al., Clin Cancer Res 2008). No mortality was observed following tumour cells implantation. NB tumours were allowed to grow from the injected cells for 22 days, then animals were randomly divided in 3 groups. One group was treated i.v., once a week for 5 weeks, with 1 mg/kg of vincristine (VCR, 5 administration in total). A second group of animals was treated with a combination of VCR (i.v. injection of 1 mg/kg, once a week for 5 weeks, 5 administration in total) and BN210 (i.p. injection of 7 mg/kg, 5 days/week, 20 administrations in total). Negative control mice were treated with HEPES-buffered saline. The significance of the differences between experimental groups (n=8 mice/group) in the survival experiments was determined by Kaplan-Meier curves by the use of Chi square log-rank test. […]

[12] = Acute toxicity in vivo in CD-1 female mice; conditions: 3, 10 and 30 mg/kg i.v. or i.p.
Method: We have evaluated in vivo the acute toxicity of BN210. 30 CD-1 female mice (Charles River Italia s.r.l., Via Indipendenza, 11-23885 CALCO (Lecco)), weighing 21.8-22.9 g, were divided in 6 groups, each of 5 animals, and housed in Makrolon cages (type III) at a room temperature of 22±3° C. and at a relative humidity of 55±15%. Air changes were 180-220/hour. Three doses of BN210, dissolved in phosphate buffered saline, were tested: 3, 10 and 30 mg/kg given intravenously (i.v., via the tail vain) or intraperitoneally (i.p.). BN210 concentrations in the formulates were 0.155, 0.517 and 1.551 mg/ml, respectively. Mice were observed daily, twice/day, for the appearance of toxicity signs during the 14 days following drug administration. The parameters commonly checked in the Irvin test were taken into consideration. […] After 14 days of observation, all mice were sacrificed and dissected for gross pathology examination. Any sign or pathological alterations were the subject of close scrutiny during the necropsy.

soluble HRP-3 = soluble HRP-3 (Homo sapiens, UniProt Q9Y3E1); experiment: In vitro anti-angiogenic activity (data not shown); assay type: cell-based
soluble HRP-3, sequence (Q9Y3E1 whole entry): as above

Duplex 2: derived DNA double strand with base changes versus Duplex 1, to test importance of sequence for binding (chain 1 TACAACATTCACAAA; chain 2 TTTGTGAATGTTGTA; chain 1: DNA, backbone and methylation of C not given here; chain 2: DNA, backbone not given here)
activity in abolishing the anti-migratory effect of HRP-3 on 3T3 cells (HRP-3 [1]): modest activity

Duplex 4: derived DNA double strand with base changes versus Duplex 1, to test importance of sequence for binding (chain 1 CACACACACACACAC; chain 2 GTGTGTGTGTGTGTG; chain 1: DNA, backbone and methylation of C not given here; chain 2: DNA, backbone not given here)
activity in abolishing the anti-migratory effect of HRP-3 on 3T3 cells (HRP-3 [1]): no activity

5′-TACAACACCCACAAAAAATTTGTGGGTGTTGTA-3' (TACAACACCCACAAAAAATTTGTGGGTGTTGTA; DNA, backbone and methylation of C not given here) [SEQ ID NO. 16]
number of sprouted HUVEC spheroids versus recombinant protein alone (HRP-3 [2]): can block; also recorded: reduced

Avastin: anti-VEGF antibody
effect on VEGF-mediated HUVEC sprouting (HUVEC cells [3]; in presence of VEGF): blocks HUVEC sprouting VEGF-mediated

Duplex 3: derived DNA double strand designed to test different molecular shapes (chain 1 TACAACAAACCCACAAA; chain 2 TTTGTGGGTGTTGTA; chain 1: DNA, backbone and methylation of C not given here; chain 2: DNA, backbone not given here)
activity in abolishing the anti-migratory effect of HRP-3 on 3T3 cells (HRP-3 [1]): no activity

HRP-3: recombinant HDGF Related Protein 3 with PWWP domain, cDNA from human cells, produced in E. Coli
concentration that blocks 3T3 proliferation (3T3 cells [4]): 0.1 ng/mL
vessel-like network of HUVEC in tube formation assay (HUVEC [5]): able to maintain vessel-like network of HUVEC
prevention of SH-SY5 proliferation induced by 5% FBS [6]: 25%
mRNA levels of VEGF, VEGFR-2, HRP-3 and HDGF after HRP-3 stimulation (HUVEC cells [7]; HUVEC stimulated with HRP-3): not changed
prevention of 3T3 migration induced by 5% FBS (NIH 3T3 fibroblasts): 50%
concentration stimulating sprouting on HUVEC cells (HUVEC cells [3]; 24 hours of stimulation): above 100 ng/ml
effect on proliferation of BAEC (BAEC): no effects
prevention of HUVEC migration induced by 5% FBS (HUVEC [8]): about 80%
effect on proliferation of HUVEC (HUVEC [9]): no effects
concentration that blocks 3T3 anchorage independent growth (3T3 cells [10]): 0.1 ng/mL

CC[C@]1(O)C[C@H]2CN(CCc3c([nH]c4ccccc34)[C@@](C(=O)OC)(c3cc4c(cc3OC)N(C=O)[C@H]3[C@@](O)(C(=O)OC)[C@H](OC(C)=O)[C@]5(CC)C=CCN6CC[C@]43[C@@H]65)C2)C1 [vincristine, reference compound]
concentration inhibiting proliferation of GI-LI-N cells (GI-LI-N cells; MTT): 2.5 to 5 nM
life span compared to negative control mice [11]: did not show any increase of their life span

5′-TAC AAC ACC CAC AAA-[CH2CH2O]5-TTT GTG GGT GTT GTA-[CH2CH2O]5H-3' (TACAACACCCACAAABTTTGTGGGTGTTGTAB; PEG5 spacers, chemistry not fully specified) [SEQ ID NO. 18]
number of sprouted HUVEC spheroids versus recombinant protein alone (HRP-3 [2]): reduced

5′-PEG (40 KDa)-(NH)-T*AC AACACCCACAAAAAAUTTGTGGGTGTT GTiA-3' (BTACAACACCCACAAAAAAUTTGTGGGTGTTGTA; 5'-PEG 40 kDa amino linker, 3' inverted nucleotide, hairpin, further chemistry not given here) [BN210]
effect of addition on vincristine treatment (GI-LI-N cells; 250 nM BN210 with vincristine 0.15 to 5 nM): did not enhance or inhibit
clinical or behavioural signs of toxicity ([12]; 14 days observation): no signs of clinical or behavioural alterations
gross pathology at necropsy ([12]; after 14 days): No macroscopic signs or pathological changes
anti-angiogenic activity in vitro (soluble HRP-3): anti-angiogenic activity

VEGF
HRP-3 mRNA levels after VEGF treatment (HUVEC cells [7]; HUVEC treated with 60 ng/ml VEGF, versus negative control): no significant difference

5′-UACAACACCCACAAAAAAUUUGUGGGUGUUGUA-3' (2'-OMe) (UACAACACCCACAAAAAAUUUGUGGGUGUUGUA; all 2'-O-methyl, backbone not given here) [SEQ ID NO. 17]
number of sprouted HUVEC spheroids versus recombinant protein alone (HRP-3 [2]): reduced
